Results published in PubChem BioAssay (NCI).
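Test compounds were applied to cells in 96-well plates for 48 hours at 5 doses. Abbreviation: GI50, concentration required for 50% inhibition of growth. Definition used: TGI = concentration required for complete inhibition of growth.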

Legend:
Test in all cases: DTP human tumour cell line panel, 48 h
OVCAR-8 ovarian = test system: OVCAR-8 ovarian
OVCAR-5 ovarian = test system: OVCAR-5 ovarian
HOP-92 NSCLC = test system: HOP-92 NSCLC
DMS 114 small cell lung = test system: DMS 114 small cell lung
NCI-H522 lung = test system: NCI-H522 lung
HCC-2998 colon = test system: HCC-2998 colon
DMS 273 small cell lung = test system: DMS 273 small cell lung
SF-268 CNS = test system: SF-268 CNS
UACC-62 melanoma = test system: UACC-62 melanoma
NCI-H460 lung = test system: NCI-H460 lung
SNB-78 CNS = test system: SNB-78 CNS
IGROV1 ovarian = test system: IGROV1 ovarian
SNB-19 CNS = test system: SNB-19 CNS
K-562 leukemia = test system: K-562 leukemia
A549 NSCLC = test system: A549 NSCLC
DLD-1 colon = test system: DLD-1 colon
XF 498 CNS = test system: XF 498 CNS
SF-539 CNS = test system: SF-539 CNS
M14 melanoma = test system: M14 melanoma

Compound	TGI (OVCAR-8 ovarian) [µM]	TGI (OVCAR-5 ovarian) [µM]	TGI (HOP-92 NSCLC) [µM]	TGI (DMS 114 small cell lung) [µM]	TGI (NCI-H522 lung) [µM]	TGI (HCC-2998 colon) [µM]	TGI (DMS 273 small cell lung) [µM]	TGI (SF-268 CNS) [µM]	TGI (UACC-62 melanoma) [µM]	TGI (NCI-H460 lung) [µM]	TGI (SNB-78 CNS) [µM]	TGI (IGROV1 ovarian) [µM]	TGI (SNB-19 CNS) [µM]	TGI (K-562 leukemia) [µM]	TGI (A549 NSCLC) [µM]	TGI (DLD-1 colon) [µM]	TGI (XF 498 CNS) [µM]	TGI (SF-539 CNS) [µM]	TGI (M14 melanoma) [µM]	GI50 (SF-539 CNS) [µM]
C=C1CC[C@@H](Br)C(C)(C)[C@]12CCC(C)(O)C(Cl)C2 (some centres undefined)	37	36.9	46.3	31.8	32	38.2	36.2	32.6	41.4	32.1	> 100	44	43.4	49.4	45.2	32.6				
O=C(CCl)NC(Cc1ccc(F)cc1)C(=O)O (centres undefined)	> 100	> 100	> 100	> 100	> 100	> 100	> 100	> 100	> 100	> 100	> 100	> 100	> 100	> 100	> 100	> 100	> 100	> 100		
CC(=O)O[C@H]1CC[C@@]2(C)C(=CC[C@@H]3[C@@H]2CC[C@]2(C)Nc4c(cnn4S(C)(=O)=O)C[C@@H]32)C1	> 100	> 100	> 100		> 100	> 100			> 100	> 100		> 100	> 100	> 100					75.2	
CC1CCC(O)(C(C)(C(=O)O)c2ccccc2)CC1 (centres undefined)	> 100	> 100	> 100		> 100			> 100	> 100	> 100		> 100	> 100	> 100	> 100				> 100	
CCOC(=O)[C@H]1Nc2c(cccc2[N+](=O)[O-])[C@H]2OCC[C@@H]12	> 100	> 100		> 100	> 100	> 100	> 100	> 100	> 100	> 100	> 100	> 100	> 100	> 100	> 100	> 100	> 100	> 100	> 100	
C/C(=N\Oc1cc(Cl)ncn1)c1ccccn1	> 100	> 100	74.3		39.4	72.1		> 100	> 100	67.9		> 100	> 100	> 100	> 100			> 100	> 100	
CCOC(=O)Nc1cc2c(c(N)n1)N=C(c1ccccc1)[C@H](C)N2	> 100	53.9	47.1	< 0.0001	< 0.0001			> 100	21.2	0.0464		> 100	87.5		> 100	25.1	< 0.0001	0.0669	13.8	0.0269
Cc1ccc([N+](=O)[O-])cc1NC(=O)C(=O)C(C(=O)c1ccccc1F)C1OC(=O)c2ccccc21 (centres undefined)	90.8	> 100	> 100	61.2	59.2	84.6	> 100	98.8	> 100	> 100	> 100	> 100	75.5	> 100	> 100	> 100	> 100	67.3	> 100	
O=C(O)CCSCc1ccc(I)cc1	> 100	> 100	> 100		> 100	> 100		> 100	> 100	> 100		> 100	> 100	> 100	> 100				> 100	
Oc1c2c(c3c4c1N=CC=4CCN=3)-c1c(Br)cc(Br)cc1CCN2	12.1	8.66	26.7	7.12	4.2	4.72	11.8	15.5	2.77	12	29.2	13.8	> 35.6	7.57	10.3	3.85	> 38.5	9.46		
NC(=S)Nc1cc(Cl)ccc1Cl	> 100	> 100	> 100	> 100	> 100	> 100	> 100	> 100	> 100	> 100	> 100	> 100	> 100	> 100	> 100	> 100	> 100	> 100	> 100	
